We go through nine sequences from US11795460B2, “Compositions and methods for TTR gene editing and treating ATTR amyloidosis” (Intellia Therapeutics, Inc., priority 2017, dated 2023).

In data set [1] the test system is TTR. In words: TTR editing in primary human hepatocytes electroporated with Spy Cas9 protein loaded with dgRNAs (Table 7). The conditions noted are these: dgRNA electroporated with Spy Cas9 protein (RNP). It is filed as cell-based. In outline:
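Editing efficiency is the fraction of NGS reads carrying insertions, deletions or substitutions at the TTR target, measured on MiSeq amplicons from DNA harvested 24, 48 or 72 h post-delivery. Cas9–dgRNA ribonucleoprotein was nucleofected (P3 buffer, EX-147) into primary human or cyno hepatocytes.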

For data set [2], the system named is TTR. In words: TTR editing in primary human hepatocytes transfected with Spy Cas9 mRNA and dgRNAs (Table 9). Type of data set: cell-based. Conditions: dgRNA co-transfected with Spy Cas9 mRNA (SEQ ID NO:2). The procedure, abridged: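 PHH sequentially lipofected with Spy Cas9 mRNA (100 ng), then crRNA plus tracrRNA (25 nM each) dual-guide lipoplex. Cells harvested 24, 48 or 72 h post-transfection; TTR target amplicons sequenced on Illumina MiSeq, editing given as percent reads with indels or substitutions over total reads.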

A further data set relates to off-target genomic sites. In words: Off-target oligo insertion based assay in HEK293_Cas9 cells, dgRNAs and sgRNAs (Tables 23, 24). Type of data set: cell-based, human. The conditions noted are these: Table 23; TTR dgRNAs in HekCas9 cells, oligo insertion based assay. In outline:
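In HEK293 cells constitutively expressing Spy Cas9, crRNA (15 nM) plus trRNA (15 nM), or modified sgRNAs, were lipofected with donor oligo (10 nM). Genomic DNA was collected at 24 h, and oligo-insertion libraries were sequenced on MiSeq/HiSeq to map potential off-target cleavage sites.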

On to “GAAAGGCUGCUGAUGACACC (tested as dual guide RNA, chemistry not given here) [CR003352]”, for which, in the data set with TTR [1], the “Avg % Deletion” value stood at 4.30%, the “Avg % Edit” value is 29.83% and the “Avg % Insert” value is listed as 25.63%. For the same sequence, in the data set with TTR [2], the “Avg % Deletion” value is 5.07%, the “Avg % Edit” value is given as 16.80% and the “Avg % Insert” value is given as 11.73%. The “# Sites (off-target integration sites detected)” value (shortened to “# Sites”) in the data set on off-target genomic sites came to 2.
Consider “UCUAGAACUUUGACCAUCAG (tested as dual guide RNA, chemistry not given here) [CR003345]”, for which, in the data set on TTR [1], the “Avg % Deletion” value is 13.57%, the “Avg % Edit” value was determined as 48.07% and the “Avg % Insert” value is 34.53%. In the data set on TTR [2], the “Avg % Deletion” value stood at 18.45%, the “Avg % Edit” value worked out at 50.65% and the “Avg % Insert” value amounted to 32.30%. In the data set on off-target genomic sites, the “# Sites” value was determined as 0.
For “GUCACAGAAACACUCACCGU (tested as dual guide RNA, chemistry not given here) [CR005301]”, in the data set with TTR [1], the “Avg % Deletion” value is 1.60%, the “Avg % Edit” value was determined as 25.37% and the “Avg % Insert” value is given as 24.00%. In the data set with TTR [2], the “Avg % Deletion” value was 1.40%, the “Avg % Edit” value worked out at 6.77% and the “Avg % Insert” value was found to be 5.47%. Further, the “# Sites” value in the data set with off-target genomic sites is on record as 0.
For “GCAACUUACCCAGAGGCAAA (tested as dual guide RNA, chemistry not given here) [CR003356]”, in the data set with TTR [1], the “Avg % Deletion” value came out at 2.23%, the “Avg % Edit” value is listed as 9.97% and the “Avg % Insert” value came out at 7.80%. Also, in the data set on TTR [2], the “Avg % Deletion” value is on record as 2.67%, the “Avg % Edit” value is given as 7.27% and the “Avg % Insert” value came to 4.70%. In addition, the “# Sites” value in the data set on off-target genomic sites was 4.
As to “AAAUAGACACCAAAUCUUAC (tested as dual guide RNA, chemistry not given here) [CR003366]”, in the data set with TTR [1], the “Avg % Deletion” value came out at 3.10%, the “Avg % Edit” value is listed as 34.70% and the “Avg % Insert” value came to 31.63%. In the data set on TTR [2], the “Avg % Deletion” value was 4.07%, the “Avg % Edit” value is 24.53% and the “Avg % Insert” value is 20.47%. Besides, the “# Sites” value with off-target genomic sites stood at 1.
Regarding “AGGCAGUCCUGCCAUCAAUG (tested as dual guide RNA, chemistry not given here) [CR003348]”, in the data set with TTR [1], the “Avg % Deletion” value is 17.27%, the “Avg % Edit” value is 28.53% and the “Avg % Insert” value is recorded as 11.30%. Further, in the data set with TTR [2], the “Avg % Deletion” value came to 15.80%, the “Avg % Edit” value is recorded as 18.00% and the “Avg % Insert” value was found to be 2.30%. Besides, the “# Sites” value in the data set on off-target genomic sites is given as 3.
As for “ACACAAAUACCAGUCCAGCA (tested as dual guide RNA, chemistry not given here) [CR003339]”, in the data set on TTR [1], the “Avg % Deletion” value turned out to be 34.07%, the “Avg % Edit” value turned out to be 43.00% and the “Avg % Insert” value is recorded as 8.93%. In the data set on TTR [2], the “Avg % Deletion” value is listed as 34.23%, the “Avg % Edit” value worked out at 36.43% and the “Avg % Insert” value is on record as 2.27%. The “# Sites” value with off-target genomic sites was determined as 3.
Regarding “GCCGUGGUGGAAUAGGAGUA (tested as dual guide RNA, chemistry not given here) [CR003387]”, in the data set with TTR [1], the “Avg % Deletion” value was 0.20%, the “Avg % Edit” value is 1.87% and the “Avg % Insert” value amounted to 1.70%. Moreover, in the data set on TTR [2], the “Avg % Deletion” value is listed as 0.03%, the “Avg % Edit” value came to 7.87% and the “Avg % Insert” value was determined as 7.80%. For the same sequence, the “# Sites” value with off-target genomic sites is reported as 6.
With “AGUCCCUCAUUCCUUGGGAU (tested as dual guide RNA, chemistry not given here) [CR003392]”, in the data set with TTR [1], the “Avg % Deletion” value stood at 0.17%, the “Avg % Edit” value came out at 4.13% and the “Avg % Insert” value was 4.00%. Further, in the data set on TTR [2], the “Avg % Deletion” value amounted to 0.07%, the “Avg % Edit” value is given as 2.43% and the “Avg % Insert” value is 2.37%. Also, in the data set on off-target genomic sites, the “# Sites” value amounted to 0.
